Measured values reported in patent publication US20240335406A1, “COMPOUNDED COMPOSITIONS AND METHODS FOR TREATING PAIN” (CMPD Licensing, LLC, priority 2016, published 2024).
Where a name gives a salt, the structure may show the parent alone.

Assay: Potency test of the compounded topical solution of Example 1 (HPLC with UV/photodiode array detector)
Assay type: physicochemical
Conditions: for Measured: concentration of analyte in compounded topical solution of Example 1; for Potency: measured vs reported concentration, compounded topical solution of Example 1
Protocol: Diclofenac sodium topical solution, 1.5% (w/w), includes approximately 16.05 mg diclofenac sodium per mL. Accordingly, approximately 0.9167 mL of diclofenac sodium topical solution, 1.5% (w/w), was measured for every mL of compounded topical solution. […] The measured ingredients where combined in a beaker. The beaker was placed on a magnetic stirring plate and a stir bar was placed in the beaker and rotated at a speed to create a small vortex for 5 minutes. The stirred solution was then placed in containers.

Question: For O=C(O)Cc1ccccc1Nc1c(Cl)cccc1Cl [Diclofenac Sodium], which Measured is on record?
Answer: 1.51%

Question: What about the Potency of the same compound?
Answer: 103%

Question: With CCN(CC)CC(=O)Nc1c(C)cccc1C [Lidocaine HCl, Lidocaine Hydrochloride] as the compound, how does the Measured read?
Answer: 0.336%

Question: What about the Potency of the same compound?
Answer: 101%
